18 compounds from patent US8063225B2, “Tricyclic compound derivatives useful in the treatment of neoplastic diseases, inflammatory disorders and immunomodulatory disorders” (Chembridge Corporation, priority 2006, dated 2011) can be followed below.

In general, IC50 refers to the concentration that inhibits the measured activity by half.

Structures are written as SMILES.

The target of one assay is T1, IGF1 receptor (Homo sapiens, UniProt P08069).
T1 construct: MCF7 human breast cancer cells expressing IGF1 receptor; endogenous in cells; host or cells: MCF7 human breast cancer cells
Put plainly: ELISA-based assay of IGF1 receptor autophosphorylation inhibition in cells. In kind it is cell-based. The settings on record: IGF1R phosphorylation inhibition in MCF7 cells. As to the method: In another embodiment, compounds that interact with the IGF1R kinase domain are tested in a cell-based assay system. In accordance with this embodiment, cells expressing a full-length IGF1 receptor or a fragment thereof containing the IGF1R kinase domain, are contacted with a candidate or a control compound and the ability of the compound to block tyrosine kinase activity of IGF1R within a cell is determined. This assay may be used to screen a single compound or a large library of candidate compounds. Typically, the cells or cell lines are of mammalian origin and they can express the IGF1 receptor, or functional IGF1R kinase domain fragment, endogenously or be genetically engineered to express the IGF1R, or functional fragment thereof. The ability of the candidate compound to inhibit IGF1R kinase activity can be determined by methods known to those skilled in the art. For example, the inhibition can be determined by ELISA-type assay or Western blot analysis with cell lysates or immunoprecipitated IGF1R receptor using various anti-IGF1R and anti-phosphotyrosine antibodies.
In general, cells expressing IGF1R are treated with modulators (i.e., inhibitors or activators) of IGF1R kinase activity and cell lysates are produced from these treated cells. IGF1Rs are isolated from the lysate by immunoprecipitation and analyzed for phosphotyrosine content. Alternatively, or in addition, cellular protein substrates phosphorylated by IGFR may be immunoprecipitated from the lysates and their degree of tyrosine phosphorylation determined.
MCF7 human breast cancer cells expressing IGF1 receptor or an engineered […] fibroblast cell line NIH 3T3 overexpressing full-length IGF1R are an exemplary cellular models in which to perform such assays. Such cells may be maintained in DMEM medium supplemented with 10% fetal bovine serum (FBS), 4% L-glutamine, 1% antibiotic solution (penicillin-Streptomycin) in a humidified atmosphere of 95% air and 5% CO2 at 37° C. Confluent cells in T175 cell culture flasks are incubated overnight with serum-free DMEM medium. After the serum starvation step, the cells are detached and split into a standard 96-well cell culture plate (one T175 flask per plate, 30 μl of cell suspension per plate well). Tested inhibitors from their 10 mM stock solutions in DMSO are subsequently added at various concentrations in serum-free DMEM medium for 1 hour incubation at 37° C. in CO2-incubator; total DMSO concentration in both treated and control wells is adjusted to 1%. Cells are then stimulated for 10 minutes with 100 nM IGF-1 added in 30 μl DMEM. After treatment, cells are lysed by addition of 30 μl of 4× lysis buffer (phosphate-buffered saline (PBS), 2% Triton-X100, 1 mM phenylmethylsulphonyl fluoride (PMSF) and 8 mM activated orthovanadate), mixing and incubation for 15 minute at room temperature. To prepare assay plates, 96-well ELISA Plates (Pierce Chemical, Reacti-bind plates) were coated by goat-anti-rabbit Fc antiserum by adding 0.25 μg antiserum per well in 0.2M sodium bicarbonate buffer per well and incubating overnight at 4° C. After incubation, the plate is washed three times by PBS with 0.02% Tween-20, supplied with 25 ng/50 μl per well of anti-IGF1R antibody (C-20, Santa Cruz Biotechnology) and incubated for several hours to overnight. Prior to the addition of the prepared cellular lysates, the antibody solution is aspirated, wells washed with PBS and supplied with 25 μl per well of Starting Block buffer (Pierce Chemical).
To measure tyrosine phosphorylation of the beta-subunits of the IGF1R, 25-50 μl of the lysates are transferred from the stimulation plate to the wells of the prepared assay plate and incubated overnight at 4° C. The wells are washed with PBS with 0.02% Tween-20, incubated with 50 μl of 1:3000 dilution of anti-phosphotyrosine 4G10-HRP antibody conjugate (Upstate Biotechnology) for 2 hours at room temperature and washed again. […]

Another assay deals with T2, IGF1R tyrosine kinase (Homo sapiens, UniProt P08069).
T2 construct: 6×His- or GST-tagged kinase domain fragments of the corresponding RTKs expressed in baculovirus system; host or cells: baculovirus system
Put plainly: IGF1R tyrosine kinase assay (Kinase-Glo ATP depletion or PT66/PT100 AlphaScreen). The note with it: biochemical tyrosine kinase assay. The gist of the method:
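Test compounds, eight concentrations from 1 nM to 20 μM, were incubated with tagged recombinant kinase domain, poly(Glu-Tyr, 4:1) and 10 μM ATP. After 60 minutes at 37° C, Kinase-Glo luminescence quantified unconsumed ATP.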
For orientation: Kinase-Glo measures the ATP left after a reaction by luminescence.

T2 sequence (P08069 999-1274 limits assumed): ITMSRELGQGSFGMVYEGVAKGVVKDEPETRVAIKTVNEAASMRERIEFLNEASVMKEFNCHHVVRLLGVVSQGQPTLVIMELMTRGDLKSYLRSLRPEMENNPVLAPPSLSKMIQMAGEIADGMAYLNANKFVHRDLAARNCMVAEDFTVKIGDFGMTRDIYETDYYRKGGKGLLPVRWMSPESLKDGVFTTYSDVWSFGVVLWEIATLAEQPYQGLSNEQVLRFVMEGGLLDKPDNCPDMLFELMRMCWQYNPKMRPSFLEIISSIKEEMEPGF
T1 sequence (P08069 741-1367 limits assumed): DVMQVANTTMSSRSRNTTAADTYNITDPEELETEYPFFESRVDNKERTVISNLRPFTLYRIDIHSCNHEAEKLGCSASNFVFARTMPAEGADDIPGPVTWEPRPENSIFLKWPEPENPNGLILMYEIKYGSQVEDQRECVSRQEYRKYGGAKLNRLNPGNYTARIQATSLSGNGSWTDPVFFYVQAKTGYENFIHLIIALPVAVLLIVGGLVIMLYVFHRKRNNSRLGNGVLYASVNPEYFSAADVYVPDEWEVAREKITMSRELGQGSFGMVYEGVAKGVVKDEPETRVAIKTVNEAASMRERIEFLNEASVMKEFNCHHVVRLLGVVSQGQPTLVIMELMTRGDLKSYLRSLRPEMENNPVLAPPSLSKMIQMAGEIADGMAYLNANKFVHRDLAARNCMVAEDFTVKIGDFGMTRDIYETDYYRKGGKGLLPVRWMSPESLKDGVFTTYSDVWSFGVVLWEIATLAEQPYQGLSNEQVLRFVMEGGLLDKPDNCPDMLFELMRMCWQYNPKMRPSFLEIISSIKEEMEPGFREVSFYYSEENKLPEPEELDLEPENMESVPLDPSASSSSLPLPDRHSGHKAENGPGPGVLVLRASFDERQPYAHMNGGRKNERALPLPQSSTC
T1 sequence (P08069 31-736 partner limits assumed): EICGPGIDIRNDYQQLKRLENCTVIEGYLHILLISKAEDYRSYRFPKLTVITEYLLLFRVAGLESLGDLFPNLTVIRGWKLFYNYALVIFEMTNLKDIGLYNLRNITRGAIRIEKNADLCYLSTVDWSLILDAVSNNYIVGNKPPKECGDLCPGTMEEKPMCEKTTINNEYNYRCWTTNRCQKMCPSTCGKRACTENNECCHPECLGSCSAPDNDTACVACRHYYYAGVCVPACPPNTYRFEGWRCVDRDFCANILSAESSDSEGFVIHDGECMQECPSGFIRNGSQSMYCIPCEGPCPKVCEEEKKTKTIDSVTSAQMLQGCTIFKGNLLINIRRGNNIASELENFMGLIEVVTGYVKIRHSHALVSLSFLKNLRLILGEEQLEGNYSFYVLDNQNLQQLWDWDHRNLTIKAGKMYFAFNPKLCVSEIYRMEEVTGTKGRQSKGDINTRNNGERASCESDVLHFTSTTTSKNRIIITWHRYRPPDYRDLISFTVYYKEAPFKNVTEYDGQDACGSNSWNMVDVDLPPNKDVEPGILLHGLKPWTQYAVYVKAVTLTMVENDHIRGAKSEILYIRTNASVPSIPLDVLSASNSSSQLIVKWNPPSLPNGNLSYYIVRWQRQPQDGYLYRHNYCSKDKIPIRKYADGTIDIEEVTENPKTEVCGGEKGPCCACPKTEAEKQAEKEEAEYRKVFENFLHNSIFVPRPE

In the case of `Cc1ccc(OC[C@@H](O)CNc2cc[nH]c(=O)c2-c2nc3cc4c(cc3[nH]2)C(=O)N([C@@H]2CCN(C)C2)C4=O)c(C)c1` [compound 107], the IC50 against IGF1 receptor was 5 to 15 µM; on IGF1R tyrosine kinase it was under 0.5 µM.

As for `CN1CCC(N2C(=O)c3cc4nc(-c5c(NC[C@@H](O)COc6ccc7ccccc7c6)cc[nH]c5=O)[nH]c4cc3C2=O)CC1` [compound 88], the IC50 on IGF1 receptor and at IGF1R tyrosine kinase was 0.5 to 5 µM each time.

Regarding `Cc1ccc(OCC(O)CNc2cc[nH]c(=O)c2-c2nc3cc4c(cc3[nH]2)C(=O)N(CC2CCN(CCO)CC2)C4=O)c(C)c1` (stereo not drawn) [compound 37], the values for the IC50 against IGF1 receptor and against IGF1R tyrosine kinase were 5 to 15 µM and over 15 µM, respectively.

As to `COc1ccc(OC[C@H](O)CNc2cc[nH]c(=O)c2-c2nc3cc4c(cc3[nH]2)C(=O)N(C2CCN(C)CC2)C4=O)c(OC)c1OC` [compound 93], the IC50 against IGF1 receptor was 0.5 to 5 µM; at IGF1R tyrosine kinase it was under 0.5 µM.

For the compound `O=C1c2cc3nc(-c4c(NC[C@@H](O)c5cccc(Cl)c5)cc[nH]c4=O)[nH]c3cc2C(=O)N1[C@@H]1CN2CCC1CC2` [compound 33], the IC50 against IGF1 receptor was over 15 µM; against IGF1R tyrosine kinase, under 0.5 µM.

In the case of `Cc1ccc(OC[C@@H](O)CNc2cc[nH]c(=O)c2-c2nc3cc4c(cc3[nH]2)C(=O)N([C@H]2CCN(C)C2)C4=O)c(C)c1` [compound 106], the IC50 at IGF1 receptor is 5 to 15 µM; against IGF1R tyrosine kinase, under 0.5 µM.

As for `CN1CCC(N2C(=O)c3cc4nc(-c5c(NC[C@@H](O)COc6cccc(-c7ccccc7)c6)cc[nH]c5=O)[nH]c4cc3C2=O)CC1` [compound 89], the IC50 against IGF1 receptor and against IGF1R tyrosine kinase was 0.5 to 5 µM in each case.

Consider `CN1CCC(N2C(=O)c3cc4nc(-c5c(NC[C@@H](O)c6cccc(Cl)c6)cc[nH]c5=O)[nH]c4cc3C2=O)CC1` [compound 1], for which the IC50 against IGF1 receptor and on IGF1R tyrosine kinase was under 0.5 µM each time.

As to `Cc1ccc(Cl)c(C)c1OC[C@H](O)CNc1cc[nH]c(=O)c1-c1nc2cc3c(cc2[nH]1)C(=O)N(C1CCN(C)CC1)C3=O` [compound 111], the IC50 against IGF1 receptor is over 15 µM; against IGF1R tyrosine kinase, 0.5 to 5 µM.

On to `CN1CCC(N2C(=O)c3cc4nc(-c5c(NC[C@@H](O)COc6cccc7ccccc67)cc[nH]c5=O)[nH]c4cc3C2=O)CC1` [compound 87], for which the IC50 is 0.5 to 5 µM on IGF1 receptor and under 0.5 µM on IGF1R tyrosine kinase.

Turning to `CN1CCC(N2C(=O)c3cc4nc(-c5c(NC[C@@H](O)COc6cccc(OC(F)(F)C(F)F)c6)cc[nH]c5=O)[nH]c4cc3C2=O)CC1` [compound 91], the IC50 on IGF1 receptor was 0.5 to 5 µM; at IGF1R tyrosine kinase, 5 to 15 µM.

For the compound `Cc1cc(C)c(OC[C@H](O)CNc2cc[nH]c(=O)c2-c2nc3cc4c(cc3[nH]2)C(=O)N(C2CCN(C)CC2)C4=O)cc1Cl` [compound 108], the IC50 against IGF1 receptor was 5 to 15 µM; against IGF1R tyrosine kinase, 0.5 to 5 µM.

For `CN1CCC(N2C(=O)c3cc4nc(-c5c(NC[C@@H](O)COc6cccc(Cl)c6F)cc[nH]c5=O)[nH]c4cc3C2=O)CC1` [compound 96], the IC50 against IGF1 receptor is 5 to 15 µM; against IGF1R tyrosine kinase, 0.5 to 5 µM.

In the case of `Cc1ccc(OC[C@H](O)CNc2cc[nH]c(=O)c2-c2nc3c(C)c4c(cc3[nH]2)CN(C2CCN(C)CC2)C4=O)c(C)c1` [compound 140], the IC50 is 0.5 to 5 µM at IGF1 receptor and under 0.5 µM on IGF1R tyrosine kinase.

Consider `Cc1ccc(OC[C@H](O)CNc2cc[nH]c(=O)c2-c2nc3cc4c(c(C)c3[nH]2)CN(C2CCN(C)CC2)C4=O)c(C)c1` [compound 132], for which the IC50 against IGF1 receptor was 0.5 to 5 µM; against IGF1R tyrosine kinase, under 0.5 µM.

As to `O=C1c2cc3nc(-c4c(NC[C@@H](O)c5cccc(Cl)c5)cc[nH]c4=O)[nH]c3cc2C(=O)N1[C@H]1CN2CCC1CC2` [compound 34], the IC50 against IGF1 receptor was over 15 µM; at IGF1R tyrosine kinase it was under 0.5 µM.

With `Cc1cc(C)n(C[C@H](O)CNc2cc[nH]c(=O)c2-c2nc3cc4c(cc3[nH]2)C(=O)N(C2CCN(C)CC2)C4=O)n1` [compound 92], the IC50 on IGF1 receptor was in the range of 0.5 to 5 µM; at IGF1R tyrosine kinase it was 5 to 15 µM.

On to `Cc1ccc(OC[C@H](O)CNc2cc[nH]c(=O)c2-c2nc3cc4c(cc3[nH]2)C(=O)N(C2CCN(C)CC2)C4=O)c(C)c1` [compound 59], for which the 50% inhibitory concentration (IC50) at IGF1 receptor is 0.5 to 5 µM; on IGF1R tyrosine kinase it was under 0.5 µM.
